Laboratory results from patent publication US9717665B2, “Tooth desensitizing oral care compositions, devices, and methods” (The Procter & Gamble Company, priority 2013, dated 2017).

Test system: human 3rd molar coronal dentin
Experiment: Dentinal flow rate measurement (Pashley-like flow cell)
Conditions: repeated deposition
Experimental: Volumetric flow rates through cross-sections of human 3rd molar coronal dentin are measured before and after treatment using a flow cell apparatus (FIG. 6). Twenty two coronal dentin sections of human molars are obtained by cross sectional cutting with a diamond blade saw to a thickness between 0.80 and 1.00 mm. The sections resemble disks due to the circular nature of molars. The center of the disk is dentin 90 with a thin ring of enamel around the circumference (FIG. 6). The cut dentin disks are then placed in 6.0% citric acid for two minutes followed by sonication in water and subsequent rinsing to remove the smear layer created by the cutting process. The removal of the smear layer with citric acid is an effective and well known technique to produce open dentinal tubules representative of sensitive dentin found in-vivo. […]
Each dentin disk section is centered over the opening with flat washers 110 and bushing 120 on each side, making sure that the section spanned the opening with at least 1 mm overlap around the entire perimeter. […] The liquid velocity is recorded by timing the movement of the bubble within the supply line. […] Using a digital stop watch, elapsed times are recorded over 4 equidistant points along the ruler to establish the average rate the bubble travels and to ensure the velocity is constant. […]

## O=C(O)C(=O)O [oxalate]
  Flow rates through dentin: significantly reduce flow rates through dentin
